Experimental data reported in patent US7229997B2, “Compounds and their use” (Biovitrum AB, priority 2002, dated 2007).
Read-outs that look alike come from different tables or passages of the source.

Target: T1, human 5-HT2c receptor (Homo sapiens, UniProt P28335)
T1 construct: expressed in transfected cells
T1 sequence (P28335 33-458): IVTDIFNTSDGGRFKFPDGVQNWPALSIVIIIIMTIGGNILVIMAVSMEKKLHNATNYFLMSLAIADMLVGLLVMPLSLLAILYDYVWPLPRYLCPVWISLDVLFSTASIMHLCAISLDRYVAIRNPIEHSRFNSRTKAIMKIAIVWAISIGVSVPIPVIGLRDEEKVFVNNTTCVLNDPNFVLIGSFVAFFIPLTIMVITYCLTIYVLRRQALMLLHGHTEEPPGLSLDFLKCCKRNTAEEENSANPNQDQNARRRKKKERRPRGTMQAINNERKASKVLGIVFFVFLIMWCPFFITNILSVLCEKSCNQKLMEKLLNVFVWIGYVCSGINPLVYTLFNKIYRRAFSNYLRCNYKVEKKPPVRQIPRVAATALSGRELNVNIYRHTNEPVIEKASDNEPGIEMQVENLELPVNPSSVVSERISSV
Test: 5-HT2c receptor affinity assay (displacement of 3H-labelled 5-HT, Scintillation Proximity Assay)
Type: binding
Procedure: The 5-HT2c receptor affinity of compounds in the Examples was determined in competition experiments, where the ability of each compound in serial dilution to displace ^3H-labelledlabeled 5-HT, bound to membranes prepared from a transfected HEK293 cell line stably expressing the human 5-HT2c receptor protein, was monitored by Scintillation Proximity Assay technology. Non-specific binding was defined using 5 μM mianserin.

[1] = membranes from transfected HEK293 cells expressing human 5-HT2c receptor, 3H-5-HT radioligand, read-out: 5-HT2C receptor Affinity Ki

| Structure (SMILES) | Ki [nM] | Ki [1] [nM] |
| --- | --- | --- |
| CCSc1nc(N2CCNCC2)ccc1C(F)(F)F [Example 17, 1-(6-Ethylsulfanyl-5-trifluoromethyl-pyridin-2-yl)-piperazine, acetate] | 15 | – |
| FC(F)(F)c1ccc(N2CCNCC2)nc1OCCOc1cccc2cccnc12 [Example 21, 8-[2-(6-Piperazin-1-yl-3-trifluoromethyl-pyridin-2-yloxy)-ethoxyl-quinoline, acetate] | – | 246 |
| CCSc1nc(N2CCNC[C@H]2C)ccc1C(F)(F)F [Example 30, 1-(6-Ethylsulfanyl-5-trifluoromethyl-pyridin-2-yl)-2-(R)-methyl-piperazine, acetate] | 24 | – |
| COc1ccc(F)cc1COc1nc(N2CCNCC2)ccc1C(F)(F)F [Example 36, 1-[6-(5-Fluoro-2-methoxy-benzyloxy)-5-trifluoromethyl-pyridin-2-yl]-piperazine, acetate] | 5 | – |
| C[C@H]1CN(c2ccc(C(F)(F)F)c(SCc3ccccc3Cl)n2)CCN1 [Example 38, 1-[6-(2-Chloro-benzylsulfanyl)-5-trifluoromethyl-pyridin-2-yl]-3-(S)-methyl-piperazine, acetate] | – | 6 |
| FC(F)(F)c1ccc(N2CCNCC2)nc1OCc1ccco1 [Example 25, 1-[6-(Furan-2-ylmethoxy)-5-trifluoromethyl-pyridin-2-yl]-piperazine, acetate] | 14 | – |
| FC(F)(F)c1ccc(N2CCNCC2)nc1SCc1ccccc1Cl [Example 15, 1-[6-(2-Chloro-benzylsulfanyl)-5-trifluoromethyl-pyridin-2-yl]-piperazine, acetate] | 1 | – |
